Data from the supplement of paper PMC10307832.

Tests used:
Test in all cases: relative viability (nuclei count vs DMSO), 5 days (fraction); higher = more cells survive
[1] = test system: HCC-827
Summary of the method: (§1)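 Values are medians from duplicate plates. Each reflects relative viability, defined as the nuclei count of treated wells over that of vehicle wells. Lung cancer cell lines in 1536-well plates were pin-tool dosed one day after seeding with one drug alone or with a fixed anchor-drug dose plus five library-drug doses (not always all listed) in √10 steps, then fixed, stained and imaged at 4× after 5 days.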

[2] = test system: NCI-H1437
Summary of the method: as §1

[3] = test system: SK-LU-1
Summary of the method: as §1

[4] = test system: NCI-H1755
Summary of the method: as §1

[5] = test system: NCI-H23
Summary of the method: as §1

[6] = test system: HARA
Summary of the method: as §1

[7] = test system: NCI-H727
Summary of the method: as §1

[8] = test system: NCI-H1915
Summary of the method: as §1

[9] = test system: NCI-H1792
Summary of the method: as §1

[10] = test system: A-427
Summary of the method: as §1

[11] = test system: NCI-H460
Summary of the method: as §1

[12] = test system: NCI-H1395
Summary of the method: as §1

[13] = test system: NCI-H2009
Summary of the method: as §1

[14] = test system: COR-L 105
Summary of the method: as §1

[15] = test system: EMC-BAC-2
Summary of the method: as §1

[16] = test system: NCI-H2228
Summary of the method: as §1

[17] = test system: LCLC-103H
Summary of the method: as §1

[18] = test system: CAL-12T
Summary of the method: as §1

[19] = test system: NCI-H522
Summary of the method: as §1

[20] = test system: SW 1573
Summary of the method: as §1

[21] = test system: HOP-62
Summary of the method: as §1

Cc1sc2c(c1C)C(c1ccc(Cl)cc1)=N[C@@H](CC(=O)OC(C)(C)C)c1nnc(C)n1-2 [JQ1] + CCNC(=O)c1noc(-c2cc(C(C)C)c(O)cc2O)c1-c1ccc(CN2CCOCC2)cc1 [Luminespib] (partner 0.01 µM)
relative viability ([1]; first compound 0.04 µM): 0.887
relative viability ([1]; first compound 0.4 µM): 0.424
relative viability ([1]; first compound 1.265 µM): 0.624
relative viability ([1]; first compound 4 µM): 0.59
relative viability ([2]; first compound 0.04 µM): 1.1
relative viability ([2]; first compound 0.1265 µM): 1.09
relative viability ([2]; first compound 0.4 µM): 1.11
relative viability ([2]; first compound 1.265 µM): 0.617
relative viability ([2]; first compound 4 µM): 0.393
relative viability ([3]; first compound 0.04 µM): 0.199
relative viability ([3]; first compound 0.1265 µM): 0.177
relative viability ([3]; first compound 0.4 µM): 0.171
relative viability ([3]; first compound 1.265 µM): 0.152
relative viability ([3]; first compound 4 µM): 0.175
relative viability ([4]; first compound 0.04 µM): 0.645
relative viability ([4]; first compound 0.1265 µM): 0.283
relative viability ([4]; first compound 0.4 µM): 0.539
relative viability ([4]; first compound 1.265 µM): 0.393
relative viability ([4]; first compound 4 µM): 0.442
relative viability ([5]; first compound 0.04 µM): 0.247
relative viability ([5]; first compound 0.1265 µM): 0.185
relative viability ([5]; first compound 0.4 µM): 0.179
relative viability ([5]; first compound 1.265 µM): 0.166
relative viability ([5]; first compound 4 µM): 0.173
relative viability ([6]; first compound 0.04 µM): 0.65
relative viability ([6]; first compound 0.1265 µM): 0.508
relative viability ([6]; first compound 0.4 µM): 0.374
relative viability ([6]; first compound 1.265 µM): 0.168
relative viability ([6]; first compound 4 µM): 0.153
relative viability ([7]; first compound 0.04 µM): 0.357
relative viability ([7]; first compound 0.1265 µM): 0.423
relative viability ([7]; first compound 0.4 µM): 0.45
relative viability ([7]; first compound 1.265 µM): 0.35
relative viability ([7]; first compound 4 µM): 0.346
relative viability ([8]; first compound 0.04 µM): 0.56
relative viability ([8]; first compound 0.1265 µM): 0.668
relative viability ([8]; first compound 0.4 µM): 0.364
relative viability ([8]; first compound 1.265 µM): 0.32
relative viability ([8]; first compound 4 µM): 0.186
relative viability ([9]; first compound 0.04 µM): 0.522
relative viability ([9]; first compound 0.1265 µM): 0.437
relative viability ([9]; first compound 0.4 µM): 0.383
relative viability ([9]; first compound 1.265 µM): 0.201
relative viability ([9]; first compound 4 µM): 0.314
relative viability ([10]; first compound 0.04 µM): 0.795
relative viability ([10]; first compound 0.1265 µM): 0.97
relative viability ([10]; first compound 0.4 µM): 0.847
relative viability ([10]; first compound 1.265 µM): 0.563
relative viability ([10]; first compound 4 µM): 0.431
relative viability ([11]; first compound 0.04 µM): 0.031
relative viability ([11]; first compound 0.1265 µM): 0.0279
relative viability ([11]; first compound 0.4 µM): 0.0618
relative viability ([11]; first compound 1.265 µM): 0.032
relative viability ([11]; first compound 4 µM): 0.0328
relative viability ([12]; first compound 0.04 µM): 0.761
relative viability ([12]; first compound 0.1265 µM): 0.681
relative viability ([12]; first compound 0.4 µM): 0.808
relative viability ([12]; first compound 1.265 µM): 0.399
relative viability ([12]; first compound 4 µM): 0.458
relative viability ([13]; first compound 0.04 µM): 0.971
relative viability ([13]; first compound 0.1265 µM): 0.657
relative viability ([13]; first compound 0.4 µM): 0.878
relative viability ([13]; first compound 1.265 µM): 0.295
relative viability ([13]; first compound 4 µM): 0.298
relative viability ([14]; first compound 0.04 µM): 0.66
relative viability ([14]; first compound 0.1265 µM): 0.49
relative viability ([14]; first compound 0.4 µM): 0.369
relative viability ([14]; first compound 1.265 µM): 0.239
relative viability ([14]; first compound 4 µM): 0.206
relative viability ([15]; first compound 0.04 µM): 1.16
relative viability ([15]; first compound 0.1265 µM): 1.09
relative viability ([15]; first compound 0.4 µM): 0.925
relative viability ([15]; first compound 1.265 µM): 0.472
relative viability ([15]; first compound 4 µM): 0.477
relative viability ([16]; first compound 0.04 µM): 0.148
relative viability ([16]; first compound 0.1265 µM): 0.19
relative viability ([16]; first compound 0.4 µM): 0.0885
relative viability ([16]; first compound 1.265 µM): 0.112
relative viability ([16]; first compound 4 µM): 0.103
relative viability ([17]; first compound 0.04 µM): 0.973
relative viability ([17]; first compound 0.1265 µM): 0.85
relative viability ([17]; first compound 0.4 µM): 0.533
relative viability ([17]; first compound 1.265 µM): 0.47
relative viability ([17]; first compound 4 µM): 0.358
relative viability ([18]; first compound 0.04 µM): 0.364
relative viability ([18]; first compound 0.1265 µM): 0.184
relative viability ([18]; first compound 0.4 µM): 0.367
relative viability ([18]; first compound 1.265 µM): 0.134
relative viability ([18]; first compound 4 µM): 0.146
relative viability ([19]; first compound 0.04 µM): 1.12
relative viability ([19]; first compound 0.1265 µM): 1.21
relative viability ([19]; first compound 0.4 µM): 0.677
relative viability ([19]; first compound 1.265 µM): 0.601
relative viability ([19]; first compound 4 µM): 0.504
relative viability ([20]; first compound 0.04 µM): 0.249
relative viability ([20]; first compound 0.1265 µM): 0.182
relative viability ([20]; first compound 0.4 µM): 0.195
relative viability ([20]; first compound 1.265 µM): 0.0871
relative viability ([20]; first compound 4 µM): 0.0908
relative viability ([21]; first compound 0.04 µM): 0.867
relative viability ([21]; first compound 0.1265 µM): 0.824
relative viability ([21]; first compound 0.4 µM): 0.477
relative viability ([21]; first compound 1.265 µM): 0.309
relative viability ([21]; first compound 4 µM): 0.128
